# Data from patent publication EP4361137A1, “PRUNE1 INHIBITORS AND THERAPEUTIC USE THEREOF” (CEINGE Biotecnologie Avanzate Franco Salvatore s.c. a r.l., priority 2022, dated 2024).
# Key:
# MMTV-Prune1/Wnt1 cells = experiment: Real-time cell migration analysis (cell index); format: cell-based, murine; conditions: 10 µM and 100 µM, dose dependent
# Prune1 = target: T1, Prune1 (Homo sapiens, UniProt Q86TP1); experiment: Immunoblotting and densitometry of Prune1 in D425-MED cells; format: cell-based
# T1 construct: endogenous in cells; host or cells: D425-MED cells
# T1 sequence (Q86TP1 1-453): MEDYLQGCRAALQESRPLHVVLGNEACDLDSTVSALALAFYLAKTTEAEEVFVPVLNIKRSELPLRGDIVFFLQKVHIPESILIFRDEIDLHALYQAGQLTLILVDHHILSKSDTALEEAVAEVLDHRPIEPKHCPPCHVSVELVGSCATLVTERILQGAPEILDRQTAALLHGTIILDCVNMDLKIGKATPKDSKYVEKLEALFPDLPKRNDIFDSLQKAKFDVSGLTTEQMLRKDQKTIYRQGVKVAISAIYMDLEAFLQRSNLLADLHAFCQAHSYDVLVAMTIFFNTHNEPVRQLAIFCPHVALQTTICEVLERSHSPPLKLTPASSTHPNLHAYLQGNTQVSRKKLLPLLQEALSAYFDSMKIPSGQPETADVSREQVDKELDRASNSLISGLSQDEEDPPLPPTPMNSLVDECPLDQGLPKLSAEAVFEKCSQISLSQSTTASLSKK
# Protocol: D425.MED and MMTV-Prune1/Wnt1 cells were plated and treated with increasing concentrations of LEO-AA7.5(S)T for 24 hours. Water-treated cells were used as negative control for the experiments.
# (§1) Cells for immunoblotting analysis were washed in cold PBS and lysed in cell lysis buffer [20 mM sodium phosphate (pH 7.4), 150 mM NaCl, 10% (v/v) glycerol, 1% (w/v) sodium deoxycholate, 1% (v/v) Triton X-100] supplemented with protease inhibitors (Roche). The resulting cell lysates were cleared by centrifugation at 16,200g for 10 min at room temperature, and the supernatants were re- moved and assayed for protein concentrations with the Protein Assay Dye Reagent (Bio-Rad). The cell lysates (30 µg) were resolved by SDS-polyacrylamide gel electrophoresis (SDS-PAGE) gels of different percentages, which depended on the molecular weights of the proteins of interest. The proteins were then electrophoretically transferred to polyvinylidene difluoride (PVDF) membranes (Millipore). After 1 hour in blocking solution with 5% (w/v) dry milk fat in PBS or 5% (w/v) BSA (Sigma-Aldrich) in tris-buffered saline [both of which contained 0.02% (v/v) Tween 20] […] The peak areas of the bands were measured on the densitometry plots, and the relative proportions (percentages) were calculated. […]
# human PRUNE1 = experiment: qPCR of PRUNE1 mRNA in MATH1-Prune1/TP53-/- cells; format: cell-based; conditions: 10 µM, 24 hours, relative to vehicle
# Protocol: (§2) RNA samples were extracted using TRIzol RNA Isolation Reagent (15596026, Invitrogen), according to the manufacturer instructions. Reverse transcription was performed with 5× All-In-One RT MasterMix (g592; ABM), according to the manufacturer instructions. The reverse transcription products (cDNA) were amplified by qRT-PCR using an RT-PCR system (7900; Applied Biosystems, Foster City, CA, USA). The cDNA preparation was through the cycling method, by incubating the complete reaction mix as follows: cDNA reactions: (37 °C for 10 min and 60 °C for 15 min); Heat-inactivation: 95 °C for 3 min; Hold stage: 4 °C. The targets were detected with the SYBR green approach, using BrightGreen BlasTaq 2× PCR MasterMix (G895; ABM). Human ACTB was used as the housekeeping gene to normalize the quantification cycle (Cq) values of the other genes. These runs were performed on a PCR machine (Quantstudio5, Lifetechnologies) with the following thermal protocol: Hold stage: 50 °C for 2 min; Denaturation Step: 95 °C for 10 min; Denaturation and annealing (×45 cycles): 95 °C for 15 s and 60 °C for 60 s; Melt curve stage: 95 °C for 15 s, 60 °C for 1 min, and 95 °C for 15 s. Relative expression of the target genes was determined using the 2^-ΔΔCq method, as the fold increase compared with the controls. The data are presented as means ±SD of the 2^-ΔΔCq values (normalized to human ACTB) of three replicates.
# murine PRUNE1 = experiment: qPCR of PRUNE1 mRNA in MATH1-Prune1/TP53-/- cells; format: cell-based; conditions: 10 µM, 24 hours, relative to vehicle
# Protocol: as §2
# human and murine Prune1 = experiment: Immunoblotting of MATH1-Prune1/TP53-/- cells; format: cell-based; conditions: 10 µM, 24 hours
# Protocol: as §1, with “20] (TBS-Tween), the PVDF mem- branes were incubated with the required primary antibody overnight at 4°C: anti-PRUNE1 (1:250; Ferrucci et al., 2018), or anti- β-actin (1:10,000; A5441, Sigma-Aldrich).” for “20]”
# [1] = test system: inflammatory cytokines targeted by IMIDs drugs; experiment: qPCR of inflammatory cytokines in MATH1-Prune1/TP53-/- cells; format: cell-based, murine; conditions: 10 µM, 24 hours
# Protocol: as §2
# [2] = test system: MATH1-Prune1/TP53-/- cells; experiment: Mouse cytokine antibody array on conditioned media; format: cell-based, murine; conditions: 10 µM, 24 hours; n.61 cytokines measured
# Protocol: The conditioned media collected from three different vehicle- or 10 µM LEO-AA7.5(S)T-treated MATH1-Prune1/TP53-/- cells after 24 hours were pooled. The relative levels of cytokines in the pooled conditioned media and murine sera were measured (RayBio C-Series Mouse Cytokine Antibody Array C3 [AAM-CYT-3-2]), according to the manufacturer protocol. Densitometric analysis was carried out using the Quantity One software (BioRad). Expression levels were normalized to the levels of the positive control spots (contained within the membrane). For each cytokine, the mean ±standard error was determined.
# D425-Med cells = experiment: In vivo combinatorial treatment with Vincristine, orthotopic medulloblastoma model; parameters: species or system nude mice
# Protocol: We then measured the combinatorial treatment with (S)-(1-(4-((4-methoxybenzyl)amino)-1,3,5-triazin-2-yl)piperidin-3-yl)methanol HCl salt compound and Vincristine in vivo. To this end, D425-Med cells (1 ×10^5 cells) were implanted into the fourth ventricle of nude mice (n=18). After 7 days from tumour implantation (i.e., once the tumours were established) the mice (grouped according to their bioluminescence values) were injected intraperitoneally with 0.3 mg/kg/day Vincristine alone or in combination with 6 mg/kg/day (S)-(1-(4-((4-methoxybenzyl)amino)-1,3,5-triazin-2-yl)piperidin-3-yl)methanol HCl salt compound for 18 days (Figures 9E).
structure (smiles),measurement,setting,value
"COc1ccc(CNc2ncnc(N3CCC[C@H](CO)C3)n2)cc1.Cl [LEO-AA7.5(S)T, (S)-(1-(4-((4-methoxybenzyl)amino)-1,3,5-triazin-2-yl)piperidin-3-yl)methanol HCl salt]",migration rate,MMTV-Prune1/Wnt1 cells,reduction
same,"dose effective on Prune1 target inhibition/degradation in vitro, lower than AA7.1",Prune1; 10 µM vs 100 µM AA7.1,10 fold
same,Prune1 protein levels,"Prune1; D425-Med cells, 10 µM, 24 hours, densitometry relative to vehicle",0.6 fold
same,human endogenous Prune1 mRNA,human PRUNE1,0.15 fold
same,murine endogenous Prune1 mRNA,murine PRUNE1,0.4 fold
same,human and murine Prune1 levels (immunoblotting),human and murine Prune1,reduced human and murine Prune1 levels
same,nuclear phosphorylated SMAD2 and OTX2 (immunoblotting),human and murine Prune1,inhibition
same,levels of inflammatory cytokines targeted by IMIDs drugs (qPCR),[1],decreased levels
same,number of cytokines/ chemokines significantly downregulated in the conditioned media,[2],10
same,"intracranial tumor growth, combinatorial treatment with Vincristine",D425-Med cells; 6 mg/kg/day plus 0.3 mg/kg/day Vincristine intraperitoneally for 18 days,significantly decreased
same,angiogenesis (IVISense Integrin Receptor 680 Fluorescent Probe),D425-Med cells; combinatorial treatment with Vincristine,decreased levels of angiogenesis
